# Data taken from publication PMC10108347, “Heterobifunctional Ligase Recruiters Enable pan-Degradation of Inhibitor of Apoptosis Proteins” (Journal of Medicinal Chemistry, 2023).
# “Also recorded” adds a separate entry of the source. Where two headings read alike, the source gives them in different places.
# Assays:
# [1] = molecular target: cIAP1 (Homo sapiens, UniProt Q13490); assay: Immunoblotting (western blot) quantification of cIAP1 levels in MM.1S cells; parameters: Dmax: dose or concentration left out as unconfirmed
# Chain of cIAP1 (Q13490 whole entry): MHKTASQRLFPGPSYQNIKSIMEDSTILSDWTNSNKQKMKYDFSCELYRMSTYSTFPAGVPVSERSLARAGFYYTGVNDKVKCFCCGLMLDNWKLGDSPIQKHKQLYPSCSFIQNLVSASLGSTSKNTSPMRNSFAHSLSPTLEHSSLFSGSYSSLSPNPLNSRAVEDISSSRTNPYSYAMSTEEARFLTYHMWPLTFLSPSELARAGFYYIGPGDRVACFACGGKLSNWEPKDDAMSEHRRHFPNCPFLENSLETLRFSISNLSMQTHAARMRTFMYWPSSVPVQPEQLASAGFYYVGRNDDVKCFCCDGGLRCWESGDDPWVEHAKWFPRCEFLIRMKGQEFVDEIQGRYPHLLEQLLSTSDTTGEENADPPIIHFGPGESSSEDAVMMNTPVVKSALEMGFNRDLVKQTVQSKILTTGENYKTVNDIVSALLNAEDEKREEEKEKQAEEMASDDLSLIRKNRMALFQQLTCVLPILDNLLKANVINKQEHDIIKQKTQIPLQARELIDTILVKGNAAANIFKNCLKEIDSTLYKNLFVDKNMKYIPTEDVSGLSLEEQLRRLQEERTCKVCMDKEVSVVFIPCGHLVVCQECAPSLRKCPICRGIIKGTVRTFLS
# [2] = tested on: SUDHL6; assay: CellTiter-Glo cell viability assay, SUDHL6; format: cell-based; conditions: Homo sapiens
# Procedure: (§1) As TNF-α and related signaling cascades represent crucial factors for the single-agent activity of IAP-targeting compounds,[29],[38],[39],[55] the viability inhibition of sensitive cell lines was evaluated in the presence and absence of this inflammatory stimulus. […] These effects were independent of IAP baseline levels (Figure S16), which is in agreement with the previous studies of IAP antagonists.
# (§2) Cells were seeded in 384-well plates with respective treatments, and plates were incubated at 37 °C for 96 h. Viability assays were performed with or without the addition of TNF-α at 1 ng/mL. The cell viability readout was measured using the CellTiter-Glo Luminescent Cell Viability Assay (Promega, Madison, USA) and measured with a Synergy LX Multi-Mode plate reader (BioTek, Vermont, USA). All conditions were normalized to the DMSO-treated control. Data represents the mean ± SD of biological triplicates.
# [3] = tested on: RPMI-8826; assay: CellTiter-Glo cell viability assay, RPMI-8826; format: cell-based
# Procedure: as §1, §2
# [4] = tested on: K562; assay: CellTiter-Glo cell viability assay, K562; format: cell-based; conditions: Homo sapiens
# Procedure: as §1, §2
# [5] = tested on: DB; assay: CellTiter-Glo cell viability assay, DB; format: cell-based; conditions: Homo sapiens
# Procedure: as §1, §2
# [6] = molecular target: T1, XIAP (Homo sapiens, UniProt P98170); assay: diaPASEF quantitative proteomics in MM.1S cells: XIAP; format: cell-based; parameters: endogenous in cells; host or cells: MM.1S; conditions: 3 h; for logFC XIAP: 0.1 μM, log2 fold change compound vs CTRLs (limma); for XIAP level in global proteomics (in words): 100 nM, diaPASEF
# T1 sequence (P98170 whole entry): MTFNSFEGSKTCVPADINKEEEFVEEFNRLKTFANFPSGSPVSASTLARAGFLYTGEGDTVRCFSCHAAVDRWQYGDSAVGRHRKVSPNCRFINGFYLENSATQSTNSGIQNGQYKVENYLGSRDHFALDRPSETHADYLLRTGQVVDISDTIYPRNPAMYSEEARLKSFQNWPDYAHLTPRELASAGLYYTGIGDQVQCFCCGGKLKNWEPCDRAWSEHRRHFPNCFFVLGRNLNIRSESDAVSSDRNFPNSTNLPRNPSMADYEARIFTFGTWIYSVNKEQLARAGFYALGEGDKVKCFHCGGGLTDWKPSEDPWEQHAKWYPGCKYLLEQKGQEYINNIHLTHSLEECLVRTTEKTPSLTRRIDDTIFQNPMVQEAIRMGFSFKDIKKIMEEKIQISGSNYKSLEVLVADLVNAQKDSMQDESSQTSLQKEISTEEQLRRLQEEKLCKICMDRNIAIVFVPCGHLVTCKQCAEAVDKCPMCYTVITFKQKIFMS
# Procedure: To analyze the proteome-wide degradation selectivity of hetero-PROTACs 9, 25, and 27, a diaPASEF-based mass spectrometry approach was employed.[54] MM.1S cells were treated with 100 nM PROTACs for 3 h. […] Accordingly, global proteomic plots show the mathematically imputed levels of IAP proteins in treatment groups if the corresponding IAP was detected in the control treatment (see also Experimental Section).
# MM1s cells were treated with DMSO or 0.1 μM of compound for 3 h. The cells were harvested by centrifugation and washed with phosphate-buffered saline before snap-freezing in liquid nitrogen. The cells were lysed by addition of lysis buffer (8 M urea, 50 mM NaCl, 50 mM 4-(2-hydroxyethyl)-1-piperazine-ethanesulfonic acid (EPPS) pH 8.5, protease, and phosphatase inhibitors) and homogenization by bead beating (BioSpec) for three repeats of 30 s at 2400. Bradford assay was used to determine the final protein concentration in the clarified cell lysate. 50 μg of protein for each sample was reduced, alkylated, and precipitated using methanol/chloroform as previously described,[64] and the resulting washed precipitated protein was allowed to air dry. The precipitated protein was resuspended in 4 M urea, 50 mM HEPES pH 7.4, followed by dilution to 1 M urea with the addition of 200 mM EPPS, pH 8. Proteins were first digested with LysC (1:50; enzyme/protein) for 12 h at RT. The LysC digestion was diluted to 0.5 M urea with 200 mM EPPS pH 8, followed by digestion with trypsin (1:50; enzyme/protein) for 6 h at 37 °C. Sample digests were acidified with formic acid to a pH of 2–3 prior to desalting using C18 solid-phase extraction plates (SOLA, Thermo Fisher Scientific). Desalted peptides were dried in a vacuum centrifuge and reconstituted in 0.1% formic acid for LC–MS analysis.
# Data were collected using a TimsTOF Pro2 (Bruker Daltonics, Bremen, Germany) coupled to a nanoElute LC pump (Bruker Daltonics, Bremen, Germany) via a CaptiveSpray nanoelectrospray source. Peptides were separated on a reversed-phase C18 column (25 cm × 75 μm ID, 1.6 μM, IonOpticks, Australia) containing an integrated captive spray emitter. Peptides were separated using a 50 min gradient of 2–30% buffer B (acetonitrile in 0.1% formic acid) with a flow rate of 250 nL/min and column temperature maintained at 50 °C.
# Data-Dependent Acquisition (DDA) was performed in the Parallel Accumulation-Serial Fragmentation (PASEF) mode to determine effective ion mobility windows for downstream diaPASEF data collection.[54] The diaPASEF parameters included 100% duty cycle using accumulation and ramp times of 50 ms each, 1 TIMS-MS scan, and 10 PASEF ramps per acquisition cycle. The TIMS-MS survey scan was acquired between 100–1700 m/z and 1/K0 of 0.7–1.3 V × s/cm^2. Precursors with 1–5 charges were selected, and those that reached an intensity threshold of 20,000 arbitrary units were actively excluded for 0.4 min. The quadrupole isolation width was set to 2 m/z for m/z < 700 and 3 m/z for m/z > 800, with the m/z between 700 and 800 m/z being interpolated linearly. The TIMS elution voltages were calibrated linearly with three points (Agilent ESI-L Tuning Mix Ions; 622, 922, 1222 m/z) to determine the reduced ion mobility coefficients (1/K0). To perform diaPASEF, the precursor distribution in the DDA m/z-ion mobility plane was used to design an acquisition scheme for DIA data collection, which included two windows in each 50 ms diaPASEF scan. Data was acquired using 16 of these 25 Da precursor double window scans (creating 32 windows), which covered the diagonal scan line for doubly and triply charged precursors, with singly charged precursors able to be excluded by their position in the m/z-ion mobility plane. These precursor isolation windows were defined between 400–1200 m/z and 1/K0 of 0.7–1.3 V × s/cm^2. […]
# [7] = tested on: JJN3; assay: CellTiter-Glo cell viability assay, JJN3; format: cell-based; conditions: Homo sapiens
# Procedure: as §1, §2
# [8] = tested on: NCI-H929; assay: CellTiter-Glo cell viability assay, NCI-H929; format: cell-based; conditions: Homo sapiens
# Procedure: as §1, §2
# [9] = molecular target: T1, XIAP; assay: Immunoblotting (western blot) quantification of XIAP levels in MM.1S cells; parameters: Dmax: dose or concentration left out as unconfirmed
# [10] = MM1.S, 16 h, read-out: %remaining protein cIAP1, MM.1S cells, 16 h treatment at 0.1 μM, normalized to loading control and DMSO
# [11] = SI csv, head prints only the cell line, no quantity or unit, values parallel Table 1/S8, read-out: DB
# [12] = MM1.S, 16 h, read-out: %remaining protein XIAP, MM.1S cells, 16 h treatment at 0.1 μM, normalized to loading control and DMSO
# [13] = MM.1S cells, 16 h, western blot, 0.1 or 1 μM
smiles,measurement,setting,value
"CN[C@@H](C)C(=O)N[C@H](C(=O)N1C[C@@H](Oc2cccc(OCCOCCCCCCOCCCCCCNc3cccc4c3C(=O)N(C3CCC(=O)NC3=O)C4=O)c2)C[C@H]1C(=O)N[C@@H]1CCCc2ccccc21)C1CCCCC1 (stereo partly drawn) [PROTAC 25, (2S,4S)-1-((S)-2-Cyclohexyl-2-((S)-2-(methylamino)propanamido)acetyl)-4-(3-(2-((6-((6-((2-(2,6-dioxopiperidin-3-yl)-1,3-dioxoisoindolin-4-yl)amino)hexyl)oxy)hexyl)oxy)ethoxy)phenoxy)-N-((R)-1,2,3,4-tetrahydronaphthalen-1-yl)pyrrolidine-2-carboxamide]",remaining activity at 0.1 µM,"[1]; MM1.S, 16 h, read-out: %remaining protein cIAP1",5%
same,IC50,"[2]; SU-DHL-6, read-out: SUDHL6",14 nM
same,IC50,[3]; read-out: RPMI-8826,1520 nM
same,IC50,"[4]; K562, read-out: K562",380 nM
same,IC50,"[5]; DB, read-out: DB",160 nM
same,logFC XIAP,[6],-3.7
same,XIAP level in global proteomics (in words),[6],below the detection level
same,IC50,"[7]; JJN-3, read-out: JJN3",180 nM
same,IC50,"[8]; NCI-H929, 96 h, read-out: IC50 cell viability NCI-H929",27 nM
same,remaining activity at 0.1 µM,"[9]; MM1.S, 16 h, read-out: %remaining protein XIAP",2%
"CN[C@@H](C)C(=O)N[C@H](C(=O)N1C[C@@H](Oc2cccc(OCCCCC(=O)N[C@H](C(=O)N3C[C@H](O)C[C@H]3C(=O)N[C@@H](C)c3ccc(-c4scnc4C)cc3)C(C)(C)C)c2)C[C@H]1C(=O)N[C@@H]1CCCc2ccccc21)C1CCCCC1 [PROTAC 9, (2S,4S)-1-((S)-2-Cyclohexyl-2-((S)-2-(methylamino)propanamido)acetyl)-4-(3-((5-(((S)-1-((2S,4R)-4-hydroxy-2-(((S)-1-(4-(4-methylthiazol-5-yl)phenyl)ethyl)carbamoyl)pyrrolidin-1-yl)-3,3-dimethyl-1-oxobutan-2-yl)amino)-5-oxopentyl)oxy)phenoxy)-N-((R)-1,2,3,4-tetrahydronaphthalen-1-yl)pyrrolidine-2-carboxamide]",remaining activity at 0.1 µM,[1]; [10],5%
same,Dmax,"[1]; MM1.S, read-out: Dmax cIAP1 (maximum degradation), MM.1S cells, 16 h",99%
same,Dmax cIAP1 (maximum degradation),"[1]; MM.1S cells, 16 h, at 0.1 μM",>99%
same,DC50,"[1]; read-out: DC50,16h cIAP1, MM.1S cells, 16 h, densitometric quantification of western blots, n = 4",2.4 nM
same,IC50,"[2]; SU-DHL-6, DLBCL cell line, 96 h, TNFα-challenged, read-out: IC50 cell viability SUDHL6",1.6 nM
same,IC50,"[3]; MM cell line, 96 h, TNFα-challenged, read-out: IC50 cell viability RPMI-8826",2540 nM
same,IC50,"[4]; K562, AML cell line, 96 h, TNFα-challenged, read-out: IC50 cell viability K562",420 nM
same,IC50,"[5]; DB, DLBCL cell line, 96 h, TNFα-challenged, read-out: IC50 cell viability DB",460 nM
same,IC50,[5]; [11],510 nM
same,logFC XIAP,[6],-1.764
same,XIAP level in global proteomics (in words),[6],below the detection level
same,IC50,"[7]; JJN-3, MM cell line, 96 h, TNFα-challenged, read-out: IC50 cell viability JJN3",1140 nM
same,IC50,"[8]; NCI-H929, MM cell line, 96 h, TNFα-challenged, read-out: IC50 cell viability NCI-H929",8.5 nM
same,remaining activity at 0.1 µM,[9]; [12],7%
same,Dmax,"[9]; MM1.S, read-out: Dmax XIAP (maximum degradation), MM.1S cells, 16 h",99%
same,Dmax XIAP (maximum degradation),"[9]; MM.1S cells, 16 h, at 0.1 μM",>99%
same,DC50,"[9]; read-out: DC50,16h XIAP, MM.1S cells, 16 h, densitometric quantification of western blots, n = 4",0.7 nM
"CN[C@@H](C)C(=O)N[C@@H](C(=O)N1CCC[C@H]1C(=O)N[C@@H]1c2ccccc2C[C@@H]1OCC#CC#CCO[C@H]1Cc2ccccc2[C@H]1NC(=O)[C@@H]1CCCN1C(=O)[C@H](NC(=O)[C@H](C)NC)C1CCCCC1)C1CCCCC1 [AZD5582, reference compound]",cIAP1 degradation (in words),[1]; [13],substantial degradation
same,IC50,"[2]; SU-DHL-6, SI csv, head prints only the cell line, no quantity or unit, values parallel Table 1/S8, read-out: SUDHL6",1.5 nM
same,IC50,"[3]; SI csv, head prints only the cell line, no quantity or unit, values parallel Table 1/S8, read-out: RPMI-8826",470 nM
same,IC50,"[4]; SI csv, head prints only the cell line, no quantity or unit, values parallel Table 1/S8, read-out: K562",19 nM
same,IC50,[5]; [11],73 nM
same,XIAP level in global proteomics (in words),[6],did not cause XIAP degradation
same,IC50,"[7]; JJN-3, SI csv, head prints only the cell line, no quantity or unit, values parallel Table 1/S8, read-out: JJN3",200 nM
same,IC50,"[8]; SI csv, head prints only the cell line, no quantity or unit, values parallel Table 1/S8, read-out: NCI-H929",14 nM
same,XIAP degradation (in words),[9]; [13],failed to degrade XIAP; also recorded: did not influence XIAP levels even at 1 μM
"CN[C@@H](C)C(=O)N[C@H](C(=O)N1C[C@@H](Oc2cccc(OCCCCCCOCCCCCCOCCCCCCNc3cccc4c3C(=O)N(C3CCC(=O)NC3=O)C4=O)c2)C[C@H]1C(=O)N[C@@H]1CCCc2ccccc21)C1CCCCC1 (stereo partly drawn) [PROTAC 27, (2S,4S)-1-((S)-2-Cyclohexyl-2-((S)-2-(methylamino)propanamido)acetyl)-4-(3-((6-((6-((6-((2-(2,6-dioxopiperidin-3-yl)-1,3-dioxoisoindolin-4-yl)amino)hexyl)oxy)hexyl)oxy)hexyl)oxy)phenoxy)-N-((R)-1,2,3,4-tetrahydronaphthalen-1-yl)pyrrolidine-2-carboxamide]",remaining activity at 0.1 µM,[1]; [10],27%
same,XIAP level in global proteomics (in words),[6],selective XIAP degradation
same,remaining activity at 0.1 µM,[9]; [12],8%
